Source: patent US20240116867A1, “ALKYL […] AMMONIUM T[…] THEIR […] USES” (CAAMTECH, INC., priority 2019, published 2024)
Read-outs that look alike come from different tables or passages of the source.

Tests used:
5-HT2A [1] = target: T1, 5-HT2A (Homo sapiens, UniProt P28223); settings: cited from earlier work
T1 construct: host or cells: HEK-293

5-HT1A [2] = target: T2, 5-HT1A (Homo sapiens, UniProt P08908); settings: cited from earlier work
T2 construct: host or cells: HEK-293
T2 sequence (P08908 1-422): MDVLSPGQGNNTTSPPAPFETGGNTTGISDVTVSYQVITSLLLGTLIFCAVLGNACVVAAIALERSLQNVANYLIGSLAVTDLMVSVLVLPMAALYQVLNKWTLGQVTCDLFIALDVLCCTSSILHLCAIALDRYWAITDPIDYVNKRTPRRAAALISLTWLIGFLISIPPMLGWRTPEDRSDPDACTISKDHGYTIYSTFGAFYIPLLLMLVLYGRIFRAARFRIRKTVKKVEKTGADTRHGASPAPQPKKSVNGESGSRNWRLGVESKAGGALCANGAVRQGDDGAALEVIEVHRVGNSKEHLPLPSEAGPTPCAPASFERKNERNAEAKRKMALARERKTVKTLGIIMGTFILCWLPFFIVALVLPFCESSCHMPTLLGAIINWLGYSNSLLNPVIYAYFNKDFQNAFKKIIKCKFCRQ

5-HT2B [3] = target: T3, 5-HT2B (Homo sapiens, UniProt P41595); settings: comparison values (Roth et al.); cited from earlier work
T3 sequence (P41595 whole entry): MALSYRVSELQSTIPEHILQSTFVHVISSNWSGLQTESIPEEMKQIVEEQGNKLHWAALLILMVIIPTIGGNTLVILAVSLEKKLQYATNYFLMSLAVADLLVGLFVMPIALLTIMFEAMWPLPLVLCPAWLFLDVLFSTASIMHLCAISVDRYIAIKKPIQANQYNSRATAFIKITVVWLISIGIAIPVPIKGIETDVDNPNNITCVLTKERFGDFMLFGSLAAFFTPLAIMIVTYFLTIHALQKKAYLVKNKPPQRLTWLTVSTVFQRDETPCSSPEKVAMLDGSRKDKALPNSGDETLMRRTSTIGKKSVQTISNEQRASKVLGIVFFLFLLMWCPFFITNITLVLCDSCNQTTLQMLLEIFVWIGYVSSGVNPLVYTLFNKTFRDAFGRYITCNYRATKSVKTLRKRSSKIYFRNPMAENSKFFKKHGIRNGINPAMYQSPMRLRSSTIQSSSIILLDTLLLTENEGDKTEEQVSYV

5-HT3 [4] = target: T4, 5-HT3 (Homo sapiens, UniProt P46098); settings: read-out: Inhibition constants (Ki) 5-HT3; comparison values marked ‡ (Roth et al.); cited from earlier work
T4 construct: host or cells: HEK-293
T4 sequence (P46098 24-478): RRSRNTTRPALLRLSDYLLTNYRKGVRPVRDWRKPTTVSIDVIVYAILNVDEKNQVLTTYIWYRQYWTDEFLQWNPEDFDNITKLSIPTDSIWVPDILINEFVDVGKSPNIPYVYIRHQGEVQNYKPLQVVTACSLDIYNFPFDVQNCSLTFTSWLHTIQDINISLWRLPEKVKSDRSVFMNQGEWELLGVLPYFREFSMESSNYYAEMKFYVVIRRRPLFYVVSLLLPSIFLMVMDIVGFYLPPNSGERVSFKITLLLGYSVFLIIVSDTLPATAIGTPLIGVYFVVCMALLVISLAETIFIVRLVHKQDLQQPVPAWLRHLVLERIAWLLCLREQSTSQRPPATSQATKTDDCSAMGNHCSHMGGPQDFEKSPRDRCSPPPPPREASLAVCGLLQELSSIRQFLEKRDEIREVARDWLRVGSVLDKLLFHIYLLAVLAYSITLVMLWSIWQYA

5-HT3 [5] = target: T4, 5-HT3; test: Radioligand binding, 5-HT3 ([3H] BRL 43694), membrane homogenates of HEK-293 cells; settings: Table 5
Procedure: (§1) Cellular assays were performed by Eurofins CEREP SA, Celle-Lévescault, France. All receptors were separately expressed in HEK-293 cells. Cell membrane homogenates (30 μg protein) are incubated for 60 min (5-HT1A, 5-HT2A, 5-HT2B) or 120 min (5-HT3) at 22° C. with radiolabeled ligand in the absence or presence of the test compound in a buffer containing 50 mM Tris-HCl (pH 7.4), 5 mM MgCl2, 10 μM pargyline and 0.1% ascorbic acid. For 5-HT3, the buffer contained 50 mM Tris-HCl (pH 7.4), 5 mM MgCl2, and 1 mM EDTA. Binding was reported as the Ki for the inhibition of binding of well-characterized orthosteric ligands. The ligands used for each receptor were: • 5-HT1A: [^3H] 8-OH-DPAT • 5-HT2A: [^125] […]
(§2) Nonspecific binding was determined in the presence of 1 μM unlabeled ligand listed above. […] The filters were dried then counted for radioactivity in a scintillation counter (Topcount, Packard) using a scintillation cocktail (Microscint 0, Packard). The results are expressed as a percent inhibition of the control radioligand specific binding.
(§3) The IC50 values and Hill coefficients (nH) were determined by non-linear regression analysis of the competition curves generated with mean replicate values using Hill equation curve fitting Y=D+[(A−D)/(1+(C/C50)^nH)] where Y=specific binding, A=left asymptote of the curve, D=right asymptote of the curve, C=compound concentration, C50=IC50, and nH=slope factor. […]

5-HT2B [6] = target: T3, 5-HT2B; test: Radioligand binding, 5-HT2B ([125] (±)DOI), membrane homogenates of HEK-293 cells; set-up: host or cells: HEK-293; settings: Table 5
Procedure: as §1, §2, §3

5-HT1A [7] = target: T2, 5-HT1A; test: Radioligand binding, 5-HT1A ([3H] 8-OH-DPAT), membrane homogenates of HEK-293 cells; settings: Table 5
Procedure: as §1, §2, §3

5-HT2A [8] = target: T1, 5-HT2A; test: Radioligand binding, 5-HT2A ([125] (±)DOI), membrane homogenates of HEK-293 cells; settings: Table 5
Procedure: as §1, §2, §3

[9] = comparison values (Roth et al.)

T1 sequence (P28223 whole entry): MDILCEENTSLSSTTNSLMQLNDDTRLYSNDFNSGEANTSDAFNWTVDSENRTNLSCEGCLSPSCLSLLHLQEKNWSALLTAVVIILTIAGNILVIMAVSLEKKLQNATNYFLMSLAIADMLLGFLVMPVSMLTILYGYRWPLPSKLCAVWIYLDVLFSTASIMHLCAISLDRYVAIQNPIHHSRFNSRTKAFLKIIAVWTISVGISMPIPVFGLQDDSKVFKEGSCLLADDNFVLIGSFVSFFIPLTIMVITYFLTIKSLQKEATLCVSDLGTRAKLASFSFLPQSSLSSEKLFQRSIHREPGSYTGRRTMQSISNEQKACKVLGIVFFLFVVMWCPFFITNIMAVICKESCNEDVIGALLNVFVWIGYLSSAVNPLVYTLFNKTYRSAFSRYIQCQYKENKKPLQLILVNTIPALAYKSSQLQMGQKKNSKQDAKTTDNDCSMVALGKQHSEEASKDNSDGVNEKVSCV

Row | SMILES | activity at 5-HT2A (in words) (5-HT2A [1]; [9]) | activity at 5-HT1A (in words) (5-HT1A [2]; [9]) | activity at 5-HT2B (in words) (5-HT2B [3]) | Ki (5-HT3 [4]) [µM] | Ki (5-HT2A [1]; read-out: Inhibition constants (Ki) 5-HT2A, comparison values marked ‡ (Roth et al.)) [µM] | Ki (5-HT1A [2]; read-out: Inhibition constants (Ki) 5-HT1A, comparison values marked ‡ (Roth et al.)) [µM] | activity at 5-HT3 (in words) (5-HT3 [5]) | activity at 5-HT2B (in words) (5-HT2B [6]) | activity at 5-HT1A (in words) (5-HT1A [7]) | activity at 5-HT2A (in words) (5-HT2A [8])
1 | CN(C)CCc1c[nH]c2cccc(O)c12 [Psilocin] | shows activity | shows activity | significantly more potent than 4-HO-TMTI | > 10 | – | – | – | – | – | –
2 | CN(C)CCc1c[nH]c2cccc(OP(=O)(O)O)c12 [Psilocybin] | – | – | – | > 10 | > 10 | > 10 | – | – | – | –
3 | C[N+](C)(C)CCc1c[nH]c2cccc(O)c12 [Example 4-HO-TMTI, 4-Hydroxy-N,N,N-trimethyltryptammonium Iodide] | – | – | – | – | – | – | no activity observed | shows activity | shows activity | shows activity
4 | CC(=O)Oc1cccc2[nH]cc(CC[N+](C)(C)C)c12 [Example 4-AcO-TMTI, 4-Acetoxy-N,N,N-trimethyltryptammonium Iodide] | – | – | – | – | – | – | shows no activity | shows no activity | shows no activity | shows no activity
